Results taken from patent US5874457A, “Imidazolylalkyl derivatives of imidazo[1,5-a]indol-3-one” (Pharmacia & Upjohn S.p.A., priority 1994, dated 1999).

What was measured:
5-HT3 [1] = molecular target: T1, 5-HT3 (Rattus norvegicus, UniProt P35563); assay: Inhibition of the binding of ^3 H-BRL 43694 (5-HT3 binding affinity, rat entorhinal cortex); parameters: from tissue; host or cells: rat entorhinal cortex (brain cortical membranes)
T1 sequence (P35563 24-483): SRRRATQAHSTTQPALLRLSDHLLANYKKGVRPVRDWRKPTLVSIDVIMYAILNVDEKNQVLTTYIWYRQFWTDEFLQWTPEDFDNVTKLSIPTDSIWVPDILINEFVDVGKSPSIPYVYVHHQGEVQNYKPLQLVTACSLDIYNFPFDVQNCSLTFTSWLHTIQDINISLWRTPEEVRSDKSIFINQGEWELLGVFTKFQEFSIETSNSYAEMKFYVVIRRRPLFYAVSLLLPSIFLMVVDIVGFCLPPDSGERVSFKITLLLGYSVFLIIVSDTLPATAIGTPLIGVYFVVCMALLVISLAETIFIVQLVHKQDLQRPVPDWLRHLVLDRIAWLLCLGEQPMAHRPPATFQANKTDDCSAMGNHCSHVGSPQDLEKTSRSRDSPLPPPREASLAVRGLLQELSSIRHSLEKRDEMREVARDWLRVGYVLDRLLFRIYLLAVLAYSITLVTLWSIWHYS
Text: The following Table II summarized the data obtained in this in-vitro test for the representative compound of the invention coded as FCE 28572.
5-HT3 binding affinity for rat entorhinal

5-HT3 [2] = molecular target: T1, 5-HT3; assay: Inhibition of the von Bezold-Jarisch chemoreflex evoked by 5-HT in the anesthetized rat (5HT3 antagonist activity in vivo); parameters: evoked by 5-HT in the anesthetized rat; from tissue; host or cells: living anesthetized rat (in vivo; native receptors, by own knowledge on cardiac vagal afferents); conditions: 5-HT 30 μg/kg i.v.
Procedure: Pharmacol. 326, 36-44 (1984).
The following Table I reports in-vivo 5HT3 antagonist activity data obtained in this test for the representative compound of the invention 2-(5-methyl-1H-imidazol-4-yl)methyl-1,2-dihydro-imidazo[1,5-a]indol-3-one (internal code […]).
elicited by 5-HT (30 μg/kg i.v.) by FCE 28572
in the anesthetized rat. Values are mean ± in […]

IC50 (5-HT3 [1]): 0.023 µM
% inhibition of the von Bezold-Jarisch reflex elicited by 5-HT (5-HT3 [2]; compound 100 μg/kg i.v., mean ± S.E.M. from 6 animals): 86.7%
ED50 (5-HT3 [2]; iv, limits (10.4-31.7), read-out: ED50 (limits), inhibition of the von Bezold-Jarisch reflex elicited by 5-HT): 0.0161 mg/kg
SMILES: Cc1[nH]cnc1CN1Cc2cc3ccccc3n2C1=O [FCE 28572, 2-(5-methyl-1H-imidazol-4-yl)methyl-1,2-dihydro-imidazo[1,5-a]indol-3-one]
